Results as given in patent US20250109120A1, “INDOLINE DERIVATIVES FOR TREATMENT AND/OR PREVENTION OF TUMOR OR CELL PROLIFERATIVE AND FIBROSIS DISEASES” (NATIONAL TAIWAN UNIVERSITY, priority 2023, published 2025).

Legend:
CDK19 = CDK19 (Homo sapiens (Human), UniProt Q9BWU1); assay: Kinase selectivity panel of 54 kinases (SelectScreen); type: biochemical; conditions: 150 nM, 54-kinase panel
Protocol: (§1) Compounds were tested for kinase inhibitory activity using the Thermo Fisher SelectScreen service (www.thermofisher.com/selectscreen). For CDK8, the LanthaScreen Eu Binding Assay was used. Briefly, the assay employed utilizes a fluorescent tracer to a given kinase. This is used to detect the addition of an anti-tag antibody. When the tracer and antibody bind to the targeted kinase, the Forster resonance energy transfer is measured. When a kinase inhibitor is added to the assay, the tracer/kinase binding will be disrupted, producing low FRET detection and indicating kinase inhibitory activity. Evaluation of kinase activity of additional kinase targets utilized the LanthaScreen binding assay or the Z′-Lyte activity assay provided by Thermo Fisher SelectScreen service. The IC50 values were determined using sequential doses, and the inhibition curves were provided by Thermo Fisher Scientific.
(§2) Compound k was evaluated for kinase selectivity. […] The cytotoxicity of compound k was then assessed in DU145 and PC-3 cells, human prostate cancer cell lines isolated from patients with brain and bone metastasis, respectively. […] To further examine whether compound k still inhibited CDK8/19 inhibition in cells, we assessed whether compound treatment in DU145/PC-3 androgen-independent prostate cancer cells could inhibit STAT1-S727 phosphorylation. […]

other CDKs and kinases = assay: as above; type: biochemical; conditions: 150 nM, 54-kinase panel
Protocol: as §1, §2

[1] = system: STAT1-S727 phosphorylation (CDK8/19 kinase activity); assay: STAT1-S727 phosphorylation western blot in DU145/PC-3 cells; type: cell-based, human
Protocol: FIGS. 2A-2D show the evaluation of CDK8 inhibition by compound k. […] Cell viability was measured by MTT assay, and the 50% inhibitory concentration (IC50) values were calculated by a sigmoidal dose-response equation. […] Whole-cell lysates were subjected to western blotting with the indicated antibodies. The results are shown as the mean t SEM from at least three independent experiments (*p<0.05, **p<0.01, and ***p<0.001 vs. control group; #p<0.05 vs. relevant control).
(§3) The cells were incubated in lysis buffer for 10 min at 4° C., scraped off, incubated on ice for an additional 10 min and then centrifuged at 17,000 g for 30 min at 4° C. Protein samples were electrophoresed on SDS-PAGE gels, transferred to PVDF membranes and blocked with 5% fat-free milk in PBS for 30 min at room temperature. Immunoblotting was performed overnight with primary antibodies in PBS at 4° C., followed by incubation with HRP-conjugated secondary antibodies for 1 h at room temperature. Bound antibodies will be measured using an ECL reagent and exposed to a photographic film. In the immunoprecipitation assay, cell lysates were immunoprecipitated with 1 μg of antibody and A/G agarose beads overnight at 4° C. After washing the precipitated beads three times with 1 mL ice-cold cell lysis buffer, bound immune complexes were separated by 10% SDS-PAGE and analyzed with immunoblotting.

prostate cancer cells [2] = assay: Transwell migration assay; type: cell-based, human; conditions: both prostate cancer cells
prostate cancer cells [3] = assay: TGF-β1-induced EMT proteins and gene expression, western blot and real-time PCR; type: cell-based, human
Protocol: Cells were exposed to compound k as indicated concentrations or senexin A (10 μM) in the presence or absence of TGF-β1 (10 ng/mL) for 24 h, the proteins and mRNA levels of E-cadherin, N-cadherin, Snail, vimentin, α-SMA were determined by western blot (A) or real-time PCR (B). Results are shown as the mean±SEM from at least three independent experiments (**p<0.01, ***p<0.001 vs. control group; #p<0.05, ##p<0.01, and ###p<0.001 vs. TGF-β1 treatment group).
Total RNA was isolated from cells using TRIzol reagent (Invitrogen). […] Quantitative PCR was performed using TaqMan One Step RT-PCR mastermix (ABI) in a total reaction volume of 20 μL per reaction, consisting of 10 μL of SYBR green PCR master mix (Applied Biosystems), 5 pmol of each forward/reverse primer, and 2 μL of cDNA. […] The threshold cycle (Ct) in the exponential phase of amplification was detected, the relative mRNA expression level was determined by calculating the ΔΔCt values, and the fold change was expressed as 2^−ΔΔCt. […]
The cells were incubated in lysis buffer for 10 min at 4° C., scraped off, incubated on ice for an additional 10 min and then centrifuged at 17,000 g for 30 min at 4° C. […] Bound antibodies will be measured using an ECL reagent and exposed to a photographic film. […]

DU145 cells = assay: LiCl-induced β-catenin signaling, western blot; type: cell-based, human; conditions: LiCl 20 mM; senexin A 10 μM
Protocol: (§4) Inhibitory phosphorylation of GSK3β was evaluated through western blotting. […] Whole-cell lysates were subjected to western blotting with the indicated antibodies. FIGS. 11J-11K show the comparison of basal activities of the Akt/GSK3β axis between PC-3 and DU145 cells. […] The results are shown as the mean±SEM from at least three independent experiments (*p<0.05, **p<0.01, ***p<0.001 vs. control group; #p<0.05, ##p<0.01, and ###p<0.001 vs. relevant control).
as §3

PC-3 cells = assay: β-catenin target protein expression, western blot; type: cell-based, human; conditions: 24 h
Protocol: as §4, §3

Chain of CDK19 (Q9BWU1 whole entry): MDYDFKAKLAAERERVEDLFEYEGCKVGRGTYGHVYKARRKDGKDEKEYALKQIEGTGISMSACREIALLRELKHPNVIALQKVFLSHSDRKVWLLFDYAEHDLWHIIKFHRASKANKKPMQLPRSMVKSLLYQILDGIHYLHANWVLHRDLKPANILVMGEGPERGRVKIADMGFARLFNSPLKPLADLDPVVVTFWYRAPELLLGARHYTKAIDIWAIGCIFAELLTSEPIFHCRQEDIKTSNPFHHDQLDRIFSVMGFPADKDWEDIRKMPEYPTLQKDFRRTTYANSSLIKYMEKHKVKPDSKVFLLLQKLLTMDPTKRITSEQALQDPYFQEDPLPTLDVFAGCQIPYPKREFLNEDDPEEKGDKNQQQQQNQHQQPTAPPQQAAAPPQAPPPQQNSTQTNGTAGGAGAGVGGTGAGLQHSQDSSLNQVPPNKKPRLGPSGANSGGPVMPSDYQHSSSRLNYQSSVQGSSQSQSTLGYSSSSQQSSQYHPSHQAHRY

## CNC(=O)c1cc(Oc2ccc(NS(=O)(=O)c3ccc4c(c3)C(=C(C)C)C(=O)N4)c(F)c2)ccn1 [Compound k, 4-(3-Fluoro-4-((2-oxo-3-(propan-2-ylidene)indoline)-5-sulfonamido)phenoxy)-N-methylpicolinamide]
CDK19
  CDK19 inhibition percentage: 40%
Other CDKs and kinases
  effect on other CDKs and kinases: no significant effect
[1]; DU145/PC-3, 24 h, concentration-dependent
  phosphorylation of STAT1 at Ser727: suppressed
[1]; pcDNA3 CDK8 HA transfected DU145 and PC-3, concentration-dependent
  phosphorylation of STAT1 at Ser727 in CDK8-overexpressing cells: significantly inhibited
Prostate cancer cells [2]
  TGF-β1-triggered cell migration (transwell): significantly inhibited
Prostate cancer cells [3]; TGF-β1 10 ng/mL, 24 h
  TGF-β1 effects on E-cadherin, N-cadherin, Snail, vimentin: attenuated the effects of TGF-β1
Prostate cancer cells [3]; senexin A 10 μM
  EMT protein inhibitory effects compared with senexin A: more potent
DU145 cells
  levels of active form of β-catenin and Snail: reduced the levels
PC-3 cells
  Snail expression: markedly inhibited
